Experimental findings from article PMC10732280 (2023) are described below.

Experiment [1] relates to S100P i-motif (DNA, i motif) TCCCAACCCCACTGTCCCACCCT
Put plainly: CD melting. To be noted: K+ 100 mM, Li+ 10 mM; 10 mM lithium cacodylate pH 5.5; 10 μM DNA; 50 μM compound (5 eq.); destabilising.

For experiment [2], the system named is DAP i-motif (DNA, i motif) CCCCCGCCCCCGCCCCCGCCCCCGCCCCCG
Nature of the experiment: CD melting. Particulars: K+ 100 mM, Li+ 10 mM; 10 mM lithium cacodylate pH 5.5; 10 μM DNA; 50 μM compound (5 eq.); destabilising.

Experiment [3] deals with hTelo i-motif (DNA, i motif) TAACCCTAACCCTAACCCTAACCC
Nature of the experiment: CD melting. To be noted: K+ 100 mM, Li+ 10 mM; 10 mM lithium cacodylate pH 5.5; 10 μM DNA; 50 μM compound (5 eq.); destabilising.

Experiment [4] has as its system ILPR i-motif (DNA, i motif) TGTCCCCACACCCCTGTCCCCACACCCCTGT
Nature of the experiment: CD melting. To be noted: K+ 100 mM, Li+ 10 mM; 10 mM lithium cacodylate pH 5.5; 10 μM DNA; 50 μM compound (5 eq.); destabilising.

Experiment [5] concerns S100P G-quadruplex (DNA, G4) AGGGTGGGACAGTGGGGTTGGGA
Put plainly: UV-vis titration of ligand with DNA. Particulars: K+ 100 mM, Li+ 10 mM; 10 mM lithium cacodylate; DNA at pH 7, ligand stock buffer pH 5.5; analysis method 1 (method 2: 1.5 ± 0.2).

Experiment [6] relates to S100P i-motif (DNA, i motif) TCCCAACCCCACTGTCCCACCCT
Put plainly: UV-vis titration of ligand with DNA. To be noted: K+ 100 mM, Li+ 10 mM; 10 mM lithium cacodylate pH 5.5; 5 μM ligand; analysis method 1 (method 2: 10.8 ± 2.9).

For experiment [7] the test system is unchanged. Put plainly: CD titration, Hill fit of ellipticity at 288 nm. Particulars: K+ 100 mM, Li+ 10 mM; 10 mM lithium cacodylate pH 5.5; 10 μM DNA; i-motif unfolding; Hill n 2.3 ± 0.2.

By ΔTm is commonly meant the change in melting temperature against a reference sample. Usually Kd stands for the constant that tells how readily two partners part at equilibrium. Higher therefore signals lower affinity. Take `O=C1c2cc(-c3ccc(CN4CCCC4)cc3)c3c4c(cc(NCCN5CCCC5)c(c24)C(=O)N1CCCN1CCOCC1)C(=O)N(CCCN1CCOCC1)C3=O`: the ΔTm in experiment [1] was −20.7 ± 1.1 °C; in experiment [2] it was -21.6 ± 1.1 °C; in experiment [3], -16.6 ± 0.7 °C; in experiment [4], -18.8 ± 0.4 °C. Also, the Kd is 2.0 ± 0.3 µM in experiment [5] and 11.7 ± 2.9 µM in experiment [6]. Also, the “[D]50%” value in experiment [7] turned out to be 31 ± 4 µM.
